Assay results from patent US20260250318A1, “COMPOSITIONS AND METHODS FOR CROSSING THE BLOOD BRAIN BARRIER” (VOYAGER THERAPEUTICS, INC., priority 2022, published 2026).

Legend:
[1] = system: brains, heart, liver, muscle, and DRG of the NHPs; test: Maturation of TTM-001 and TTM-002 capsids, NGS enrichment in NHP tissues; assay type: in vivo; settings: relative to AAV9 control
In short: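 Variants carry mutations within and flanking the loop IV peptide insert: positions 450–466 were triplet-randomized, while positions 449–466 received low-frequency point mutations. The combined pool went into two NHPs, and each peptide was scored by NGS enrichment ratio against AAV9.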

brain = test: Matured TTM-001 and TTM-002 variants, NGS enrichment in mouse brain; assay type: in vivo, mice; settings: relative to AAV9 control
[2] = NGS fold-enrichment of matured AAV capsid variants, NHP brain, RNA
[3] = NGS fold-enrichment of RNA, NHP brain
[4] = NGS fold-enrichment, DRG of NHPs
[5] = NGS fold-enrichment, NHP liver DNA
[6] = NGS fold-enrichment, NHP liver RNA
[7] = NGS fold-enrichment, NHP muscle
[8] = NGS fold-enrichment, RNA, brain of NHPs
[9] = NGS fold-enrichment, heart of NHPs
[10] = NGS fold-enrichment, liver DNA of NHPs
[11] = NGS fold-enrichment, liver RNA of NHPs
[12] = NGS fold-enrichment, muscle of NHPs
[13] = NGS fold-enrichment, brain of mice
[14] = NGS fold-enrichment, mouse brain

Row | Sequence | Fold Enrichment relative to AAV9, Brain (NHP) [1, 2] [fold] | Fold Enrichment relative to AAV9, DRG (NHP) ([1]; NHP DRG) [fold] | Fold Enrichment relative to AAV9, Heart (NHP) ([1]; NHP heart) [fold] | Fold Enrichment relative to AAV9, Liver DNA (NHP) ([1]; NHP liver, DNA) [fold] | Fold Enrichment relative to AAV9, Liver RNA (NHP) ([1]; NHP liver, RNA) [fold] | Fold Enrichment relative to AAV9, Muscle (NHP) ([1]; NHP muscle) [fold] | Fold Enrichment relative to AAV9, Brain (Mouse) (brain; mouse brain) [fold] | also measured
1 | KTINGSGSPHSKAQYQNT | 50.099 | 0.000 | 0.008 | 0.119 | 0.017 | 0.000 | 71.846 | –
2 | KTINGSGSPHSKAQYRAT | 51.008 | 0.000 | 0.158 | 0.120 | 0.690 | 0.000 | 50.650 | –
3 | KTINGSGSPHSKAQYSVT | 57.130 | 0.000 | 0.093 | 0.302 | 1.235 | 0.000 | 60.023 | –
4 | KTINGSGSPHSKARDWQT | 58.216 | 0.000 | 0.005 | 0.259 | 0.800 | 0.000 | 120.704 | –
5 | KTINGSGSPHSKARGEQT | 54.207 | 0.025 | 0.006 | 0.327 | 0.309 | 0.005 | 128.098 | –
6 | KTINGSGSPHSKARGLQT | 52.275 | 0.000 | 0.000 | 1.425 | 1.235 | 0.036 | 169.881 | –
7 | KTINGSGSPHSKASPRQT | 50.227 | 0.088 | 0.005 | 0.530 | 1.761 | 0.068 | 67.241 | –
8 | KTINGSGSPHSKGHWQQT | – | – | – | – | – | – | – | Fold Enrichment relative to AAV9, Brain (NHP) [1, 3]: 81.434 fold; Fold Enrichment relative to AAV9, DRG (NHP) [1, 4]: 0.000 fold; Fold Enrichment relative to AAV9, DRG (NHP) ([1]; NGS fold-enrichment, NHP DRG): 0.000 fold; Fold Enrichment relative to AAV9, Heart (NHP) ([1]; NGS fold-enrichment, NHP heart): 0.000 fold; Fold Enrichment relative to AAV9, Liver DNA (NHP) [1, 5]: 1.011 fold; Fold Enrichment relative to AAV9, Liver RNA (NHP) [1, 6]: 0.000 fold; Fold Enrichment relative to AAV9, Muscle (NHP) [1, 7]: 0.000 fold; Fold Enrichment relative to AAV9, Brain (NHP) [1, 8]: 81.434 fold; Fold Enrichment relative to AAV9, Heart (NHP) [1, 9]: 0.000 fold; Fold Enrichment relative to AAV9, Liver DNA (NHP) [1, 10]: 1.011 fold; Fold Enrichment relative to AAV9, Liver RNA (NHP) [1, 11]: 0.000 fold; Fold Enrichment relative to AAV9, Muscle (NHP) [1, 12]: 0.000 fold; Fold Enrichment relative to AAV9, Brain (Mouse) (brain; [13]): 65.252 fold; Fold Enrichment relative to AAV9, Brain (Mouse) (brain; [14]): 65.252 fold
9 | KTINGSGSPHSKGQNPPT | – | – | – | – | – | – | – | Fold Enrichment relative to AAV9, DRG (NHP) [1, 4]: 0.000 fold; Fold Enrichment relative to AAV9, Brain (NHP) [1, 8]: 72.339 fold; Fold Enrichment relative to AAV9, Heart (NHP) [1, 9]: 0.206 fold; Fold Enrichment relative to AAV9, Liver DNA (NHP) [1, 10]: 0.041 fold; Fold Enrichment relative to AAV9, Liver RNA (NHP) [1, 11]: 0.000 fold; Fold Enrichment relative to AAV9, Muscle (NHP) [1, 12]: 0.000 fold; Fold Enrichment relative to AAV9, Brain (Mouse) (brain; [13]): 134.808 fold
10 | KTINGSGSPHSKLKSQQT | 50.368 | 0.000 | 0.296 | 1.096 | 1.796 | 0.000 | 95.240 | –
11 | KTINGSGSPHSKLQKQQT | 52.144 | 0.615 | 0.477 | 0.429 | 1.113 | 1.071 | 61.833 | –
12 | KTINGSGSPHSKNQWQQT | 50.800 | 0.000 | 0.044 | 0.324 | 0.111 | 0.047 | 65.506 | –
13 | KTINGSGSPHSKNRDQQT | 51.830 | 0.000 | 0.008 | 0.138 | 0.480 | 0.000 | 100.300 | –
14 | KTINGSGSPHSKRLEQQT | 53.512 | 0.000 | 0.118 | 0.292 | 0.161 | 0.003 | 71.704 | –
15 | KTINGSGSPHSKRMEQQT | 50.177 | 0.000 | 0.000 | 0.208 | 1.327 | 0.000 | 81.769 | –
16 | KTINGSGSPHSKRPEQQT | – | – | – | – | – | – | – | Fold Enrichment relative to AAV9, Brain (NHP) [1, 3]: 80.418 fold; Fold Enrichment relative to AAV9, DRG (NHP) [1, 4]: 0.000 fold; Fold Enrichment relative to AAV9, DRG (NHP) ([1]; NGS fold-enrichment, NHP DRG): 0.000 fold; Fold Enrichment relative to AAV9, Heart (NHP) ([1]; NGS fold-enrichment, NHP heart): 0.013 fold; Fold Enrichment relative to AAV9, Liver DNA (NHP) [1, 5]: 0.361 fold; Fold Enrichment relative to AAV9, Liver RNA (NHP) [1, 6]: 0.149 fold; Fold Enrichment relative to AAV9, Muscle (NHP) [1, 7]: 0.000 fold; Fold Enrichment relative to AAV9, Brain (NHP) [1, 8]: 80.418 fold; Fold Enrichment relative to AAV9, Heart (NHP) [1, 9]: 0.013 fold; Fold Enrichment relative to AAV9, Liver DNA (NHP) [1, 10]: 0.361 fold; Fold Enrichment relative to AAV9, Liver RNA (NHP) [1, 11]: 0.149 fold; Fold Enrichment relative to AAV9, Muscle (NHP) [1, 12]: 0.000 fold; Fold Enrichment relative to AAV9, Brain (Mouse) (brain; [13]): 50.319 fold; Fold Enrichment relative to AAV9, Brain (Mouse) (brain; [14]): 50.319 fold
17 | KTINGSGSPHSKSQNQHI | – | – | – | – | – | – | – | Fold Enrichment relative to AAV9, DRG (NHP) [1, 4]: 0.000 fold; Fold Enrichment relative to AAV9, Brain (NHP) [1, 8]: 59.438 fold; Fold Enrichment relative to AAV9, Heart (NHP) [1, 9]: 0.099 fold; Fold Enrichment relative to AAV9, Liver DNA (NHP) [1, 10]: 0.108 fold; Fold Enrichment relative to AAV9, Liver RNA (NHP) [1, 11]: 0.111 fold; Fold Enrichment relative to AAV9, Muscle (NHP) [1, 12]: 0.000 fold; Fold Enrichment relative to AAV9, Brain (Mouse) (brain; [13]): 76.025 fold
